Assay results published in patent US7897369B2, “Isoprenoid wax ester synthases, isoprenoid acyl CoA-synthetases, and uses thereof” (Regents of the University of Minnesota, priority 2007, dated 2011).

How the values were obtained:
[1] = test system: S. cerevisiae H1246 expressing WS2; assay: Heterologous expression of WS2 in TAG deficient yeast, FAEE by TLC; type: cell-based, Saccharomyces cerevisiae; details: H1246 given both ethanol and oleic acid as substrates
Method: Fifteen milliliters of grown yeast were centrifuged for 10 minutes at 4000 rpm. The cell pellets were vortexed vigorously with glass beads for 5 minutes to lyse open cells and extracted with 1 mL chloroform of which 5 μL were spotted on TLC with Whatman normal phase silica gel 60 plates and developed using hexane:diethyl ether:acetic acid (90:10:1, v/v/v). TLC plates were stained with either iodine vapor.

[2] = test system: S. cerevisiae YGL035c expressing WS2; assay: Heterologous expression of WS2 in MIG1 deletion yeast, ethyloleate by TLC and GC; type: cell-based, Saccharomyces cerevisiae
Method: S. cerevisiae YGL035c BY4742 with following genotype: MATalpha his3Δ1 leu2Δ0 lys2Δ0 ura3Δ0 ΔMIG1 was purchased from ATCC ([…]; Manassas, Va.). S. cerevisiae YGL035c was cultivated for electro transformation in YPG (Yeast peptone glucose) medium at 30° C. overnight. 100 μL of washed yeast cell pellets were electroporated with 5 μL of pESC_URA for the negative control or 5 μL of pESC URA WS2, which expresses acyltransferase gene constructs. Cells were rescued with 800 μL 1M sorbitol and 200 μL were plated onto synthetic minimal media drop out agar plates without uracil. Colonies were seen after 2 days and were picked and grown in nitrogen base medium (Difco Detroit Mich.) […], and 0.13% (wt/vol), synthetic dropout medium supplement without uracil, and 2% (wt/vol) glucose. One hundred milliliter yeast cultures were grown aerobically overnight at 30° C. in 250 ml flask with synthetic dropout uracil growth media with glucose. Cells were spun down and resuspended in 200 mL of fresh dropout media with 2% glucose, 0.1% potassium oleate, and 2% galactose to induce expression of heterologous protein. Cultures were capped with a rubber stopper with syringe needle piercing the top of the rubber stopper to allow gas (carbon dioxide) to exit during the 72 hours anaerobic growth. Cells were harvested and resuspended in 1 mL of chloroform and approximately 0.5 grams of glass beads. Total lipid composition of yeast was determined from cells harvested from a 200-ml liquid culture, broken with glass-beads in a 50-mL Falcon tube, and extracted into 1.5 mL of chloroform.
Cells were vortexed vigorously for 5 minutes to lyse open cells and chloroform was removed and evaporated under nitrogen gas. 15 mL sample of 250 mL cultures were centrifuged and lysed with glass beads, the yeast lysates were resuspended in 1 ml chloroform for GC/MS analysis and TLC analysis.
Fifteen milliliters of grown yeast were centrifuged for 10 minutes at 4000 rpm. […]
For quantification of ethyloleate, chloroform extractions of three known amounts (1.5 nmoles, 15 nmoles, and 30 nmoles) of ethyloleate standard were injected into the gas chromatograph (GC) in which the peak areas were integrated to calculate the amounts of ethyloleate produced by YGL035c expressing WS2. Three microliters of chloroform extracts from the samples were injected and analyzed on a gas chromatography electron impact mass spectrometry that were performed with a Hewlett Packard 6890 series gas chromatograph connected to an HP 5973 mass spectrometer. […]

Acs2/WS2 = assay: Acs2/WS2-coupled assay with oleic acid and ethanol (TLC); type: biochemical, Marinobacter hydrocarbonoclasticus; details: oleic acid and ethanol as substrates, each 250 μM, 37° C. overnight
Method: In vitro coupled assays/TLC analysis—Stock solutions of various fatty acid substrates (oleic acid) were prepared in 50 mM Tris-HCl buffer (pH 8) containing 1% gum arabic, […], 0.1% taurocholate, and 100 mM of fatty acid. WS/Acs enzyme coupled assays were carried out in 500 μL reactions containing 50 mM Tris-HCl buffer pH 8.0, 12.5 μL of fatty acid stock solution and addition of ethyl alcohol solution (final concentrations of each substrate 250 μM), 10 mM MgCl2, 10 mM CoASH, 10 mM ATP, 5 mM TCEP, 0.1 U of inorganic pyrophosphatase, 0.25 μg of Acs2 (acyl CoA synthetase) and 0.5 μg of WS2 (wax ester synthase). Assays were incubated at 37° C. overnight before thin-layer chromatography (TLC) analysis of reaction products. In vitro WS assay samples were extracted with 500 μL of chloroform:methanol (1:1 [vol/vol]), and chloroform:methanol extracts were analyzed by TLC with Whatman normal phase silica gel 60 plates where products were separated using hexane:diethyl ether:acetic acid (90:10:1 [vol/vol/vol]). Products were compared to an ethyloleate standard. Resolved TLC plates were stained with iodine vapor.

Compound	Ethyloleate production in vivo (TLC) [1]	Ethyloleate formed from the oleate added ([2]; 250 mL culture, 889 μmoles oleate added)	Ethyloleate production in vivo (TLC) ([2]; Mig1 deletion yeast expressing pESC-URA-WS2, galactose induced, grown anaerobically with 0.1% potassium oleate)	Ethyloleate production in vivo (TLC) ([2]; potassium oleate not supplemented)	Ethyloleate formation in Acs2/WS2-coupled assay (TLC) (Acs2/WS2)	% Efficiency oleate to ethyloleate ([2]; 0.1% (wt/vol) oleate in 250 mL (889 μmoles)) [%]
CCCCCCCC/C=C\CCCCCCCC(=O)OCC [ethyloleate]	produced in vivo	approximately 50 μmol	shown in vivo	No ethyloleate product was seen	–	–
CCCCCCCC/C=C\CCCCCCCC(=O)O [oleic acid]	–	–	–	–	ethyloleate ester product was synthesized in vitro	5.5
